Source: PubChem BioAssay (NCI)
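Test compounds were applied to cells in 96-well plates for 48 hours at 5 doses. GI50 = concentration required for 50% inhibition of growth. TGI: concentration producing complete growth inhibition.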

Columns and labels:
Test in all cases: inhibition of tumour cell growth, NCI panel, 48 h
[1] = system: A549 NSCLC
[2] = system: 786-0 renal
[3] = system: MOLT-4 leukemia
[4] = system: NCI-H460 lung
[5] = system: UO-31 renal
[6] = system: EKVX NSCLC
[7] = system: HCT-116 colon
[8] = system: SK-OV-3 ovarian
[9] = system: OVCAR-4 ovarian
[10] = system: OVCAR-3 ovarian
[11] = system: RPMI-8226 leukemia
[12] = system: TK-10 renal
[13] = system: NCI-H23 lung
[14] = system: HS 578T breast
[15] = system: HT29 colon
[16] = system: HOP-92 NSCLC
[17] = system: RXF 393 renal
[18] = system: LOX IMVI melanoma
[19] = system: NCI-H226 lung
[20] = system: UACC-62 melanoma
[21] = system: K-562 leukemia
[22] = system: HOP-62 NSCLC
[23] = system: IGROV1 ovarian
[24] = system: U251 CNS
[25] = system: SW-620 colon
[26] = system: SN12C renal
[27] = system: SK-MEL-28 melanoma
[28] = system: OVCAR-8 ovarian
[29] = system: SK-MEL-2 melanoma
[30] = system: PC-3 prostate
[31] = system: ACHN renal
[32] = system: CAKI-1 renal
[33] = system: MALME-3M melanoma
[34] = system: CCRF-CEM leukemia
[35] = system: SK-MEL-5 melanoma
[36] = system: M14 melanoma
[37] = system: HCC-2998 colon
[38] = system: BT-549 breast
[39] = system: MDA-MB-435
[40] = system: KM12 colon
[41] = system: SF-539 CNS
[42] = system: T-47D breast
[43] = system: OVCAR-5 ovarian
[44] = system: A498 renal
[45] = system: SR leukemia
[46] = system: SF-268 CNS
[47] = system: UACC-257 melanoma
[48] = system: MDA-MB-231 breast
[49] = system: SNB-19 CNS
[50] = system: NCI-H522 lung
[51] = system: MCF7 breast
[52] = system: HL-60(TB) leukemia
[53] = system: HCT-15 colon
[54] = system: DU-145 prostate
[55] = system: SNB-75 CNS
[56] = system: SF-295 CNS
[57] = system: NCI/ADR-RES ovarian
[58] = system: COLO 205 colon

With `O=C(Nc1ccccc1C(=O)N/N=C(\c1ccccc1)c1ccccn1)c1ccccc1` the GI50 [1] was 987 nM, the TGI [1] was greater than 100000 nM and the GI50 [2] was 399 nM. The TGI [2] was greater than 100000 nM, the GI50 [3] was 460 nM and the TGI [3] was greater than 100000 nM. It also gave a GI50 [4] of 402 nM, a TGI [4] greater than 100000 nM and a GI50 [5] of 428 nM. The TGI [5] was greater than 25500 nM, the GI50 [6] was 339 nM and the TGI [6] was greater than 100000 nM. For the same compound, the GI50 [7] was 405 nM, the TGI [7] was greater than 100000 nM and the GI50 [8] was 504 nM. It also gave a TGI [8] greater than 100000 nM, a GI50 [9] of 330 nM and a TGI [9] greater than 100000 nM. It also gave a GI50 [10] of 346 nM, a TGI [10] greater than 100000 nM and a GI50 [11] of 823 nM. For the same compound, the TGI [11] was greater than 100000 nM, the GI50 [12] was 584 nM and the TGI [12] was greater than 100000 nM. For the same compound, the GI50 [13] was 1870 nM, the TGI [13] was greater than 100000 nM and the GI50 [14] was greater than 100000 nM. For the same compound, the TGI [14] was greater than 100000 nM, the GI50 [15] was 797 nM and the TGI [15] was greater than 100000 nM. It also gave a GI50 [16] of 552 nM, a TGI [16] of 47800 nM and a GI50 [17] of 1930 nM. For the same compound, the TGI [17] was greater than 82400 nM, the GI50 [18] was 505 nM and the TGI [18] was greater than 100000 nM. The GI50 [19] was 828 nM, the TGI [19] was greater than 100000 nM and the GI50 [20] was 496 nM. It also gave a GI50 [21] of 1450 nM, a TGI [21] greater than 100000 nM and a GI50 [22] of 396 nM. The TGI [22] was greater than 100000 nM, the GI50 [23] was 502 nM and the TGI [23] was greater than 100000 nM. The GI50 [24] was 657 nM, the TGI [24] was greater than 100000 nM and the GI50 [25] was 723 nM. For the same compound, the TGI [25] was greater than 100000 nM, the GI50 [26] was 623 nM and the TGI [26] was greater than 100000 nM. It also gave a GI50 [27] of 1230 nM, a TGI [27] greater than 100000 nM and a GI50 [28] of 583 nM. For the same compound, the TGI [28] was greater than 100000 nM, the GI50 [29] was 4850 nM and the TGI [29] was greater than 100000 nM. For the same compound, the GI50 [30] was 711 nM, the TGI [30] was greater than 100000 nM and the GI50 [31] was 418 nM. For the same compound, the TGI [31] was greater than 100000 nM, the GI50 [32] was 397 nM and the TGI [32] was greater than 100000 nM. For the same compound, the GI50 [33] was 1750 nM, the TGI [33] was greater than 100000 nM and the GI50 [34] was 351 nM. For the same compound, the TGI [34] was greater than 100000 nM, the GI50 [35] was 560 nM and the TGI [35] was 2460 nM. For the same compound, the GI50 [36] was 457 nM, the TGI [36] was 4630 nM and the GI50 [37] was 537 nM. It also gave a TGI [37] greater than 100000 nM, a GI50 [38] of 2180 nM and a TGI [38] greater than 100000 nM. For the same compound, the GI50 [39] was 1390 nM, the TGI [39] was greater than 100000 nM and the GI50 [40] was 581 nM. It also gave a TGI [40] greater than 100000 nM, a GI50 [41] of 621 nM and a TGI [41] greater than 100000 nM. The GI50 [42] was 666 nM, the TGI [42] was greater than 100000 nM and the GI50 [43] was 933 nM. For the same compound, the TGI [43] was greater than 100000 nM, the GI50 [44] was 2950 nM and the TGI [44] was greater than 100000 nM. The GI50 [45] was 507 nM, the TGI [45] was greater than 100000 nM and the GI50 [46] was 609 nM. For the same compound, the TGI [46] was greater than 100000 nM, the GI50 [47] was 2580 nM and the TGI [47] was greater than 100000 nM. For the same compound, the GI50 [48] was 478 nM, the TGI [48] was greater than 100000 nM and the GI50 [49] was 912 nM. The TGI [49] was greater than 100000 nM, the GI50 [50] was 1270 nM and the TGI [50] was greater than 100000 nM. The GI50 [51] was 556 nM, the TGI [51] was greater than 100000 nM and the GI50 [52] was 606 nM. The TGI [52] was greater than 22000 nM, the GI50 [53] was 112 nM and the TGI [53] was greater than 100000 nM. It also gave a GI50 [54] of 999 nM, a TGI [54] greater than 100000 nM and a GI50 [55] of 1070 nM. It also gave a TGI [55] greater than 100000 nM, a GI50 [56] of 427 nM and a TGI [56] greater than 67000 nM. The GI50 [57] was 276 nM, the TGI [57] was greater than 100000 nM and the GI50 [58] was 427 nM. For the same compound, the TGI [58] was greater than 100000 nM.
